In PubChem BioAssay AID248 (DTP/NCI, 2004) one finds T/C data, which are given here for 11 compounds.

Each structure is given as a SMILES string. Several values for one entry are separate records, joined by “and”; a condition that tells them apart may be missing. Identical values can stand only once. Inconclusive results and toxic doses are left out. Square brackets hold non-standard residues; d marks the D form. Peptide text beside a SMILES is read from it. * marks the point of attachment. ξ: configuration not given here. Cbz = O=C(OCc1ccccc1)*; ξV = CC(C)C(N)C(=O)O

The assay has as its system L1210 leukemia ip in BDF1 mice, survival T/C. Briefly: NCI In Vivo Anticancer Drug Screen. Data for tumor model L1210 Leukemia (intraperitoneal) in B6D2F1 (BDF1) mice. Conditions: endpoint: mean survival time, higher = longer survival. The essentials: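 Transplanted-tumor mice were given test agent; controls received vehicle only. Survival readings from the two groups were divided (treated over control).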

Where [1] appears, read: dose: 100.0 mg/kg/injection, schedule: Q04DX003 (ip), vehicle: saline with Tween-80.
Where [2] appears, read: dose: 200.0 mg/kg/injection, schedule: Q04DX003 (ip), vehicle: saline with Tween-80.
Where [3] appears, read: dose: 400.0 mg/kg/injection, schedule: Q04DX003 (ip), vehicle: saline with Tween-80.
The mark [4] stands for this setting: dose: 100.0 mg/kg/injection, schedule: Q01DX009 (ip), vehicle: Klucel (hydroxypropylcellulose) (HPC).
Where [5] appears, read: dose: 100.0 mg/kg/injection, schedule: Q04DX003 (ip), vehicle: Klucel (hydroxypropylcellulose) (HPC).
Where [6] appears, read: dose: 200.0 mg/kg/injection, schedule: Q01DX009 (ip), vehicle: Klucel (hydroxypropylcellulose) (HPC).
The mark [7] stands for this setting: dose: 200.0 mg/kg/injection, schedule: Q04DX003 (ip), vehicle: Klucel (hydroxypropylcellulose) (HPC).
The mark [8] stands for this setting: dose: 400.0 mg/kg/injection, schedule: Q04DX003 (ip), vehicle: Klucel (hydroxypropylcellulose) (HPC).

`O=C(Nc1ccc(S(=O)(=O)F)cc1)Oc1ccc([N+](=O)[O-])cc1`: the T/C (dose: 25.0 mg/kg/injection, schedule: Q01DX009 (ip), vehicle: saline with Tween-80) was 92 % of control and 93 % of control; the T/C (dose: 50.0 mg/kg/injection, schedule: Q01DX001 (ip), vehicle: saline with Tween-80) was 103 % of control; the T/C (dose: 50.0 mg/kg/injection, schedule: Q01DX009 (ip), vehicle: saline with Tween-80) is 92 % of control and 89 % of control; the T/C (dose: 100.0 mg/kg/injection, schedule: Q01DX001 (ip), vehicle: saline with Tween-80) is 105 % of control; the T/C (dose: 100.0 mg/kg/injection, schedule: Q04DX002 (ip), vehicle: saline with Tween-80) was 95 % of control; the T/C under setting [1] is 93 % of control. Further, the T/C runs as follows: (dose: 200.0 mg/kg/injection, schedule: Q01DX001 (ip), vehicle: saline with Tween-80) 97 % of control; (dose: 200.0 mg/kg/injection, schedule: Q01DX009 (ip), vehicle: saline with Tween-80) 98 % of control; (dose: 200.0 mg/kg/injection, schedule: Q04DX002 (ip), vehicle: saline with Tween-80) 96 % of control; under setting [2], 98 % of control; (dose: 400.0 mg/kg/injection, schedule: Q01DX001 (ip), vehicle: saline with Tween-80) 105 % of control; (dose: 400.0 mg/kg/injection, schedule: Q04DX002 (ip), vehicle: saline with Tween-80) 88 % of control. The T/C under setting [3] was 103 % of control.

Turning to `OCCNc1nc2cc(Cl)ccc2c2ccc(Cl)cc12`, the T/C under setting [4] was 91 % of control; the T/C under setting [5] is 96 % of control; the T/C under setting [6] is 99 % of control; the T/C under setting [7] is 93 % of control; the T/C under setting [8] is 96 % of control.

Take `O=C(Nc1ccc(NC(=O)Nc2cccc(C3=NCCN3)c2)cc1)Nc1cccc(C2=NCCN2)c1`: the T/C by setting is: (dose: 3.5 mg/kg/injection, schedule: Q#A X Z (ip), vehicle: saline) 106 % of control; (dose: 7.0 mg/kg/injection, schedule: Q01DX Z (ip), vehicle: saline) 115 % of control; (dose: 7.5 mg/kg/injection, schedule: Q01DX006 (iv), vehicle: saline) 98 % of control; (dose: 7.5 mg/kg/injection, schedule: Q#A X Z (ip), vehicle: saline) 117 % of control; (dose: 15.0 mg/kg/injection, schedule: Q01DX006 (iv), vehicle: saline) 107 % of control; (dose: 15.0 mg/kg/injection, schedule: Q01DX Z (ip), vehicle: saline) 111 % of control. For the same compound, the T/C reads like this: (dose: 23.0 mg/kg/injection, schedule: Q03DX Z (ip), vehicle: saline) 116 % of control; (dose: 30.0 mg/kg/injection, schedule: Q01DX006 (iv), vehicle: saline) 116 % of control; (dose: 30.0 mg/kg/injection, schedule: Q01DX Z (sc), vehicle: carboxymethylcellulose (CMC)) 102 % of control; (dose: 47.0 mg/kg/injection, schedule: Q03DX Z (ip), vehicle: saline) 119 % of control; (dose: 55.0 mg/kg/injection, schedule: Q07DX Z (ip), vehicle: saline) 121 % of control; (dose: 60.0 mg/kg/injection, schedule: Q01DX010 (ip), vehicle: saline) 151 % of control and 153 % of control. The T/C reads like this: (dose: 60.0 mg/kg/injection, schedule: Q01DX Z (im), vehicle: saline) 110 % of control; (dose: 60.0 mg/kg/injection, schedule: Q01DX Z (ip), vehicle: carboxymethylcellulose (CMC)) 286 % of control; (dose: 60.0 mg/kg/injection, schedule: Q01DX Z (sc), vehicle: carboxymethylcellulose (CMC)) 110 % of control; (dose: 94.0 mg/kg/injection, schedule: Q03DX Z (ip), vehicle: saline) 121 % of control; (dose: 120.0 mg/kg/injection, schedule: Q01DX010 (ip), vehicle: saline) 182 % of control and 215 % of control; (dose: 120.0 mg/kg/injection, schedule: Q01DX Z (im), vehicle: saline) 100 % of control. Besides, the T/C (dose: 120.0 mg/kg/injection, schedule: Q01DX Z (ip), vehicle: carboxymethylcellulose (CMC)) is 151 % of control; the T/C (dose: 120.0 mg/kg/injection, schedule: Q01DX Z (sc), vehicle: carboxymethylcellulose (CMC)) is 104 % of control; the T/C (dose: 148.0 mg/kg/injection, schedule: Q01DX Z (ip), vehicle: carboxymethylcellulose (CMC)) was 208 % of control; the T/C (dose: 219.0 mg/kg/injection, schedule: Q07DX Z (ip), vehicle: saline) is 154 % of control; the T/C (dose: 222.0 mg/kg/injection, schedule: Q01DX Z (ip), vehicle: carboxymethylcellulose (CMC)) was 298 % of control; the T/C (dose: 240.0 mg/kg/injection, schedule: Q01DX010 (ip), vehicle: saline) was 236 % of control and 263 % of control. In addition, the T/C is, setting by setting: (dose: 240.0 mg/kg/injection, schedule: Q01DX Z (ip), vehicle: carboxymethylcellulose (CMC)) 318 % of control; (dose: 333.0 mg/kg/injection, schedule: Q01DX Z (ip), vehicle: carboxymethylcellulose (CMC)) 353 % of control; (dose: 480.0 mg/kg/injection, schedule: Q01DX010 (ip), vehicle: saline) 112 % of control and 268 % of control; (dose: 480.0 mg/kg/injection, schedule: Q01DX Z (im), vehicle: saline) 184 % of control; (dose: 480.0 mg/kg/injection, schedule: Q01DX Z (ip), vehicle: carboxymethylcellulose (CMC)) 102 % of control and 242 % of control; (dose: 500.0 mg/kg/injection, schedule: Q01DX Z (ip), vehicle: carboxymethylcellulose (CMC)) 328 % of control.

Consider `CN(Cc1ccc(Cl)cc1)C(=O)NCCCCCCNC(=O)N(C)Cc1ccc(Cl)cc1`, for which the T/C by setting is: under setting [4], 100 % of control; under setting [6], 94 % of control; (dose: 400.0 mg/kg/injection, schedule: Q01DX009 (ip), vehicle: Klucel (hydroxypropylcellulose) (HPC)) 92 % of control.

As for `Cc1ccc[n+]2c1ccc1c3ccccc3ccc12`, the T/C (dose: 10.0 mg/kg/injection, schedule: Q01DX001 (ip), vehicle: saline) is 106 % of control.

Take `COC(=O)C(NC(=O)CNC(=O)CNC(=O)OCc1ccccc1)C(C)C` (stereo not drawn) (Cbz-Gly-Gly-[ξV]-OMe): the T/C under setting [5] is 96 % of control, the T/C under setting [7] is 99 % of control and the T/C under setting [8] was 92 % of control.

`NC(N)=NNC(=O)C(=O)O`: the T/C reads like this: under setting [1], 95 % of control; under setting [2], 91 % of control; under setting [3], 93 % of control.

Turning to `O=C(CCCN1CCC2(CC1)C(=O)NCN2c1ccccc1)c1cccs1`, the T/C is, setting by setting: (dose: 3.13 mg/kg/injection, schedule: Q01DX009 (ip), vehicle: saline with Tween-80) 95 % of control; (dose: 6.25 mg/kg/injection, schedule: Q01DX009 (ip), vehicle: saline with Tween-80) 94 % of control; (dose: 6.25 mg/kg/injection, schedule: Q04DX003 (ip), vehicle: saline with Tween-80) 102 % of control; (dose: 12.5 mg/kg/injection, schedule: Q01DX009 (ip), vehicle: saline with Tween-80) 89 % of control; (dose: 12.5 mg/kg/injection, schedule: Q04DX003 (ip), vehicle: saline with Tween-80) 95 % of control.

On to `CC(=O)OCCOC(=O)Nc1cccc2ccccc12`, for which the T/C is 100 % of control (dose: 100.0 mg/kg/injection, schedule: Q04DX002 (ip), vehicle: Klucel (hydroxypropylcellulose) (HPC)); 100 % of control (dose: 200.0 mg/kg/injection, schedule: Q04DX002 (ip), vehicle: Klucel (hydroxypropylcellulose) (HPC)); 97 % of control (dose: 400.0 mg/kg/injection, schedule: Q04DX002 (ip), vehicle: Klucel (hydroxypropylcellulose) (HPC)).

For `O=c1c2[nH]cnc2nnn1CCc1ccccc1`, the T/C (dose: 100.0 mg/kg/injection, schedule: Q01DX001 (ip), vehicle: other) was 94 % of control; the T/C (dose: 200.0 mg/kg/injection, schedule: Q01DX001 (ip), vehicle: other) was 93 % of control; the T/C (dose: 400.0 mg/kg/injection, schedule: Q01DX001 (ip), vehicle: other) is 91 % of control.

`C=CC/C=C/CCC`: the T/C runs as follows: (dose: 50.0 mg/kg/injection, schedule: Q01DX001 (ip), vehicle: carboxymethylcellulose (CMC)) 88 % of control; (dose: 200.0 mg/kg/injection, schedule: Q01DX001 (ip), vehicle: carboxymethylcellulose (CMC)) 88 % of control; (dose: 400.0 mg/kg/injection, schedule: Q01DX001 (ip), vehicle: carboxymethylcellulose (CMC)) 90 % of control.
